{"source": "patent US11612586B2", "about": "“Indole regulation of antigen presenting cells” (THE TEXAS A&M UNIVERSITY SYSTEM, priority 2016, dated 2023)", "type_in_all_cases": "cell-based, mouse", "key": {"naïve CD4+CD25− T cells [1]": {"system": "naïve CD4+CD25− T cells", "assay": "DC-T cell co-culture, polyclonal stimulation: Foxp3+ Treg induction", "details": "naïve T cells co-cultured 72 hours with BMDCs conditioned with indole", "method": "FIG. 15 is a set of FACS plots showing that indole-conditioned DCs preferentially induce Foxp3+ Tregs (polyclonal stimulation). Naïve wild-type CD4+CD25− T cells were sorted and co-cultured with indole- or DMF-conditioned BMDCs. Cells were cultured together for 72 hours in the presence of soluble α-CD3 (5 ug/ml) as well as TGF-β (2 ng/ml) with or without IL-2 (100 U/ml). Subsequently, cells were stained for the transcription factor Foxp3 and analyzed by flow cytometry. Shaded gray histograms represent unstained controls. Representative data from one of four experiments is shown.\nTo investigate whether indole-conditioned DCs preferentially induce Tregs, a co-culture system using FACS-sorted wild-type naïve CD4+CD25− T cells was employed. These naïve T cells were activated by antibodies against CD3 and CD28 in the presence of indole-conditioned BMDCs and cultured for 72 hours. Under this platform for polyclonal stimulation, a 2-fold increase in Treg induction in indole-DC cultures compared to controls was observed (FIG. 15). Additionally, the inventors pursued the same question in a more physiologically relevant model; i.e., under monoclonal T cell stimulation. […]"}, "CCR9": {"system": "CCR9", "assay": "CCR9 induction on naïve T cells by conditioned DCs", "method": "FIG. 18 graphically illustrates that indole-conditioned DCs induce CCR9 on naïve T cells upon activation. Naïve CD4+CD25− T cells from OT-II mice were co-cultured with OVA323-339 peptide-loaded BMDCs for 72 hours in the presence of RA as indicated. BMDCs were previously treated with indole, RA, or DMF from day 3. Following 3 days of co-culture, surface staining was performed for flow cytometric analysis.\nBased on the observation that indole induces gut homing markers on developing DCs, it was queried whether indole-conditioned DCs could also confer gut homing markers upon naïve CD4+ T cells. The antigen-specific T cell activation model was used to address this question, and a titration of RA was included as a positive control to induce CCR9. […] Just 10 nM of RA enabled indole-DC co-cultures to achieve over 50% of T cells expressing CCR9 which was similar to RA-DC positive controls, whereas DMF-DC co-cultures with the same concentration of RA added achieved only 10% of CCR9+ T cells.\nNaïve CD4+CD25− T cells of spleen and lymph nodes from OT-II mice were isolated by negative selection via column purification using the Naïve CD4+ T Cell Isolation Kit (Miltenyi Biotec). Naïve CD4+ T cells (>96% pure) were labeled with Cell Proliferation Dye efluor450 (eBioscience) following manufacturer's instructions then co-cultured with OVA peptide-loaded BMDCs at a ratio of 2:1 for 72 hours in a 96-well round-bottom tissue culture plate. BMDCs were previously treated with indole or RA from day 3. On day 7, DCs were washed extensively prior to being loaded with OVA323-339 peptide (10 ug/ml) for 1 hour at 37° C. BMDCs were then washed three times and plated with naïve CD4+ T cells. RA or TGFβ were added to co-cultures as indicated. Following 3 days of culture, cells were stained with antibodies to CD4, CCR9, and LPAM-1 (α4β7). Intracellular staining for Foxp3 was performed using a Foxp3 staining kit (eBioscience). The remaining CD4+ helper T cell lineages Th1, Th2, and Th17 were identified by their cytokine production. […]"}, "naïve CD4+CD25− T cells [2]": {"system": "naïve CD4+CD25− T cells", "assay": "T cell activation in the presence of BMDC supernatant: Treg induction", "details": "T cells on α-CD3/α-CD28 plates, 72 hours", "description": "Specifically, naïve CD4+CD25− T cells were FACS-sorted and plated in 96-well, α-CD3 and α-CD28-coated tissue culture plates in a volume of 100 ul cell culture media. […] T cells with DC supernatant were cultured for 72 hours in the presence or absence of exogenous TGF-β. Subsequently, cells were stained for the transcription factor Foxp3 and analyzed by flow cytometry.\nNaïve CD4+CD25− T cells were FACS-sorted as described above and plated in 96-well, αCD3 and αCD28-coated tissue culture plates in a volume of 100 ul cell culture media. An equal volume of spent BMDC supernatant was added, in the presence or absence of exogenous TGF-β, and T cells were cultured for 72 hours. To generate supernatants, day 3-treated BMDCs were collected on day 7, washed extensively and plated in a 48-well cell culture plate at 5×10^5 cells per well in 500 ul fresh complete media for 24 hours in the presence or absence of 1 ug/ml LPS. Plates were then centrifuged and supernatants were collected, filtered, and stored at −20° C. until use."}}, "note": "“Also recorded” adds a separate entry of the source."}
{"molecule": "c1ccc2[nH]ccc2c1", "note": "[Indole, indole]", "values": [{"measurement": "increase in Treg induction compared to controls", "setting": "naïve CD4+CD25− T cells [1]", "value": 2, "unit": "fold"}, {"measurement": "T cells expressing CCR9", "setting": "CCR9; co-culture with DCs conditioned with indole, 10 nM of RA added", "value": "over 50%"}, {"measurement": "induction of CCR9 on naïve T cells by conditioned BMDCs alone", "setting": "CCR9; no exogenous RA in the co-culture", "value": "insufficient; also recorded: did not induce CCR9"}, {"measurement": "Treg induction by supernatant of conditioned BMDCs relative to solvent control DCs", "setting": "naïve CD4+CD25− T cells [2]", "value": "No significant induction of Tregs"}]}
